In patent US10357486B2, “Treatment of cognitive impairment with PDE4 inhibitor” (Universiteit Maastricht, priority 2013, dated 2019):

Tests used:
[1] = system: 60 to 80 years old subjects (Impaired Elderly and Healthy Elderly); test: Verbal Learning Task (VLT) in 60 to 80 years old subjects, interim analysis; assay type: in vivo, human
Experimental: (§1) The study is conducted according to a double-blind, placebo-controlled, four-period cross-over design. Forty healthy subjects, both male and female within an age range of 60 to 80 years are planned to be included in the study in 2 groups: 1) 20 subjects with a memory performance between 1-2 Standard Deviation below the average for their age, gender, and educated level (Impaired Elderly) and 2) 20 subjects with age (±3 years), gender, and educational level matched (in order to speed up the study matching was stopped after the interim analysis) with an average memory performance between 0.5 Standard Deviation below and 0.5 Standard Deviation above from normative values (Healthy Elderly). Classification in terms of impaired or healthy elderly will be determined by a one-off testing of memory performance using the Rey Verbal Learning Task (Rey A; L'examen psychologique dans les cas d'encephalopathy traumatique 1958 Paris; Presses Universitaire de France; or Van der Elst et al; J Int Neuropsychol Soc 2005, 11 (3), pp 290-302) according to fully standardized procedures as applied in The Maastricht Aging Study (Jolles et al; Maastricht Aging Study; determinants of cognitive aging; Maastricht, The Netherlands, Neuropsych Publishers 1995). Normative data for each individual subject will be derived also from the Maastricht Aging Study using the regression formula as described by Van der Elst et al (Van der Elst et al; J Int Neuropsychol Soc 2005, 11 (3), pp 290-302).
All subjects within their corresponding groups (either Healthy Elderly n=20 or Impaired Elderly n=20) will be randomized in a double blind fashion to 1 of 4 treatment sequences, each sequence consisting of the following periods: A) Placebo+placebo; B) Roflumilast 100 mcg+placebo; C) Roflumilast […]+placebo and D) Roflumilast 1000 mcg (500+500 mcg) according to a computer-generated allocation schedule in a cross-over design. Between each of the four treatment sequences there will be a 12 days washout period.
Cognitive status will be quantified using computerized cognitive battery, a validated tool for measuring the cognitive impairment in humans. The battery will consist of: VLT, Spatial Memory Task (SMT), Stroop Task, and Bond-Lader Visual Analogue Scales (BL-VAS).
Verbal learning task (VLT) The Rey VLT as modified by Riedel and colleagues (Riedel, Klaasen et al, Psychopharmacology (Berlin) 1999 Vol 141(4) pp 362-369) is used. This modified VLT maximizes the possibility of measuring enhancement rather than only impairment, by means of prolonging the list. The test consists of a list of 30 monosyllabic words (18 nouns and 12 adjectives). The words are shown on a computer screen for 1 second. Three trials with the same item sequence are presented. Each trial ends with a free recall of the words (immediate recall). Forty-five minutes after the first exposure, the subject is asked to recall as many words as possible (delayed recall). […] The words are shown on a computer screen for 2 seconds and subjects are asked to rate whether they were presented in the learning trial by a “yes/no” response. The inter-word interval is 2 seconds. 24 Hours after the immediate recall, subjects will return to the lab for a second delayed recall and recognition. The remaining 15 old words and 15 new words will be presented during recognition. EEG will be recorded during the immediate recall and the first recognition test on the test day. […]

[2] = system: 60 to 80 years old subjects (Impaired Elderly and Healthy Elderly); test: Spatial Memory Task and Stroop task in 60 to 80 years old subjects, interim analysis; assay type: in vivo, human; details: 100, 250, 1000 mcg
Experimental: as §1, with “Normative data for each individual subject will be derived also from the Maastricht Aging Study using the regression formula as described by Van der Elst et al (Van der Elst et al; J Int Neuropsychol Soc 2005, 11 (3), pp 290-302).” left out

O=C(Nc1c(Cl)cncc1Cl)c1ccc(OC(F)F)c(OCC2CC2)c1 [roflumilast, N-(3,5-dichloropyridin-4-yl)-3-cyclopropylmethoxy-4-difluoromethoxybenzamide]
number of words on the 3rd trial of VLT ([1]; 100 mcg single dose, elderly subjects, placebo 8.81): 10.28 words
placebo-corrected fold-improvement in VLT ([1]; 100 mcg single dose, interim data of the elderly study): 1.16
increase in the number of correct words recalled after 45 min delayed recall trial of VLT, compared to placebo ([1]; 100 mcg single dose, pooled interim analysis): 1.7 words
increase in the number of correct words immediately recalled after the 3rd trial of VLT, compared to placebo ([1]; 100 mcg single dose, pooled interim analysis, 9 Impaired and 4 Healthy Elderly): 1.5 words
increase in the number of correct words recalled after 45 min delayed recall trial of VLT, compared to placebo ([1]; 1000 mcg single dose, pooled interim analysis): 1.6 words
difference between placebo and drug treatment in the Spatial Memory Task and Stroop task [2]: No statistically significant differences
